# Legend:
# PI3Kδ (p110δ/p85α) = PI3Kδ (p110δ/p85α) (Homo sapiens (Human), UniProt O00329); experiment: PI3Kδ scintillation proximity assay (enzyme assay); type: biochemical; conditions: PI3Kδ SPA, 20 μM ATP, 20 μM PIP2, 210 min
# From the text: PI3Kδ Scintillation Proximity Assay
# [γ-^33P]ATP (10 mCi/mL) was purchased from Perkin-Elmer (Waltham, Mass.). Lipid kinase substrate, D-myo-Phosphatidylinositol 4,5-bisphosphate (PtdIns(4,5)P2)D (+)-sn-1,2-di-O-octanoylglyceryl, 3-O-phospho linked (PIP2), CAS 204858-53-7, was purchased from Echelon Biosciences (Salt Lake City, Utah). PI3Kδ (p110δ/p85α) was purchased from Millipore (Bedford, Mass.). ATP, MgCl2, DTT, EDTA, MOPS and CHAPS were purchased from Sigma-Aldrich (St. Louis, Mo.). Wheat Germ Agglutinin (WGA) YSi SPA Scintillation Beads was purchased from GE healthcare life sciences (Piscataway, N.J.).
# The kinase reaction was conducted in polystyrene 384-well matrix white plate from Thermo Fisher Scientific in a final volume of 25 μL. Inhibitors were first diluted serially in DMSO and added to the plate wells before the addition of other reaction components. The final concentration of DMSO in the assay was 0.5%. The PI3K assays were carried out at room temperature in 20 mM MOPS, pH 6.7, 10 mM MgCl2, 5 mM DTT and CHAPS 0.03%. Reactions were initiated by the addition of ATP, the final reaction mixture consisted of 20 μM PIP2, 20 μM ATP, 0.2 μCi [γ-^33P] ATP, 4 nM PI3Kδ. […] After the plate sealing, plates were shaken overnight at room temperature and centrifuged at 1800 rpm for 10 minutes, the radioactivity of the product was determined by scintillation counting on Topcount (Perkin-Elmer). […]
# [1] = tested on: Pfeiffer cells (diffuse large B cell lymphoma); experiment: Pfeiffer cell proliferation assay; type: cell-based; conditions: Homo sapiens, [3H]-thymidine incorporation, 3-4 days
# Experimental: Pfeiffer Cell Proliferation Assay
# Pfeiffer cell line (diffuse large B cell lymphoma) was purchased from ATCC (Manassas, Va.) and maintained in the culture medium recommended (RPMI and 10% FBS). To measure the anti-proliferation activity of the compounds, the Pfeiffer cells were plated with the culture medium (2×10^3 cells/well/per 200 μl) into 96-well ultra-low binding plates (Corning, Corning, N.Y.), in the presence or absence of a concentration range of test compounds. After 3-4 days, [^3H]-thymidine (1 μCi/well) (PerkinElmer, Boston, Mass.) in PBS wass then added to the cell culture for an additional 12 hours before the incorporated radioactivity was separated by filtration with water through GF/B filters (Packard Bioscience, Meridenj, Conn.) and measured by liquid scintillation counting with a TopCount (Packard Bioscience).
# Chain of PI3Kδ (p110δ/p85α) (O00329 whole entry): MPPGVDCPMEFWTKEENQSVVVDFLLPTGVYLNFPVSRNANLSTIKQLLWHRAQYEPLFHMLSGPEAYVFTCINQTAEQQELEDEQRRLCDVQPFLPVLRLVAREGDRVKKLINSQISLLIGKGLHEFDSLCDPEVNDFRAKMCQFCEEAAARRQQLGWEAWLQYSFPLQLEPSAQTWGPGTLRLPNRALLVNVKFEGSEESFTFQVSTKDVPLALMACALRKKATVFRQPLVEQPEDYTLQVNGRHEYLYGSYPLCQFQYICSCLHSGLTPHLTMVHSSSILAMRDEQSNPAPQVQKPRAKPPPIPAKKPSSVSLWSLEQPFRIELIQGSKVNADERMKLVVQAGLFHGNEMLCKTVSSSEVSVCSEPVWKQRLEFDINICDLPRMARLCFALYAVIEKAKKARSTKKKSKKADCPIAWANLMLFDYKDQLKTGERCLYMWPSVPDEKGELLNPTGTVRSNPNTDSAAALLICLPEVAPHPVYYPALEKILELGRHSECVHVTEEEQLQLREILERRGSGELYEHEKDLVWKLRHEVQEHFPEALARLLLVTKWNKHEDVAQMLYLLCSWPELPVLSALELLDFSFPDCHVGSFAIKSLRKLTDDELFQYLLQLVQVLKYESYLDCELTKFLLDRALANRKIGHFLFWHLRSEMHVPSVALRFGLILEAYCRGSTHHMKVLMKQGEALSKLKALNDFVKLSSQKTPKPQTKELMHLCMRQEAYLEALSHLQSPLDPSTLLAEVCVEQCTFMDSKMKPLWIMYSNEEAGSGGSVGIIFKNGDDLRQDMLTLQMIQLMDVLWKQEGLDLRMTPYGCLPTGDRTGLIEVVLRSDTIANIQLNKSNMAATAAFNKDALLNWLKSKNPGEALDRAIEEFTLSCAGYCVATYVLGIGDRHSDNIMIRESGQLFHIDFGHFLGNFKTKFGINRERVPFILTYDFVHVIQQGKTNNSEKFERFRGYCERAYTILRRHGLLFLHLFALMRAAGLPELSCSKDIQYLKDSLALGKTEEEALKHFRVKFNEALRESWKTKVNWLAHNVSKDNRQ
# Chain of PI3Kδ (p110δ/p85α) (P27986 whole entry partner): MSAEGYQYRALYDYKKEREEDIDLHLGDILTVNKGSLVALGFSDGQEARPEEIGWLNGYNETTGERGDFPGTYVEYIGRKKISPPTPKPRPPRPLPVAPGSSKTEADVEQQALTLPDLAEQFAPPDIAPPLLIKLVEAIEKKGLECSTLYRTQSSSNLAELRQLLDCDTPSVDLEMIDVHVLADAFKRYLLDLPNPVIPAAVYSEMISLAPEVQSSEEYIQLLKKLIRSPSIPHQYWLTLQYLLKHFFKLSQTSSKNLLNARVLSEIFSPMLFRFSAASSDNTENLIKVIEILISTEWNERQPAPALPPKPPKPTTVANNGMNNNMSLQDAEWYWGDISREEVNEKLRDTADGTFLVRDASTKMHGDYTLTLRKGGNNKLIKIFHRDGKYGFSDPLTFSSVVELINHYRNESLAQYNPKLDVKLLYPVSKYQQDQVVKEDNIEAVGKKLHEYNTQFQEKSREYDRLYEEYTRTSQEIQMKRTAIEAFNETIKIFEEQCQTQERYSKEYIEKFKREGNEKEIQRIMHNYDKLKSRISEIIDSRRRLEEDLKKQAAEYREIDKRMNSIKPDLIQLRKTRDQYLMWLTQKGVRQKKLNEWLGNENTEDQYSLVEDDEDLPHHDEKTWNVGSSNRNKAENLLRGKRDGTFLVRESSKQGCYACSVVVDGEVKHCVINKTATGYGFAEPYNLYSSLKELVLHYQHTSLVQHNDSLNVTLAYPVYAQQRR
Structure (SMILES),IC50 (PI3Kδ (p110δ/p85α)),IC50 [1]
"Cc1csc2nc([C@H](C)Nc3ncnc(N)c3C#N)c(-c3cccc(F)c3)c(=O)n12 [Example 2, 4-amino-6-({(1S)-1-[6-(3-fluorophenyl)-3-methyl-5-oxo-5H-[1,3]thiazolo[3,2-a]pyrimidin-7-yl]ethyl}amino)pyrimidine-5-carbonitrile]",< 0.02 µM,< 0.02 µM
"CC(Nc1ncnc(N)c1C#N)c1cc(Cl)c2ccnnc2c1-c1cccc(F)c1 (single isomer, unassigned) [Example 1, 4-Amino-6-({1-[5-chloro-8-(3-fluorophenyl)cinnolin-7-yl]ethyl}amino)-pyrimidine-5-carbonitrile]",< 0.02 µM,< 0.02 µM
